From ChEMBL document CHEMBL1201862, “PubChem BioAssay data set” (2004) come the findings set out here.

Test [1] is described as follows: non-specific 3'UTR reporter inhibition in Clone20-Shn3RL – cell-based, Renilla luciferase, cherry-picked, counter-screen for Shn3 inhibitor project, dose response (AID 624133). The class given is functional. In general terms: Counterscreens check selectivity or assay interference.
A short description of test [2]: reduction of Shn3 3'UTR-driven luciferase in osteoblasts – cell-based, Clone20 osteoblasts, firefly luciferase, cherry-picked, dose response (AID 624132).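 Further: firefly luciferase luminescence from reporter carrying the Shn3 3'UTR in osteoblasts.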 Format: functional.
Test [3] is described as follows: loss of viability in HepG2 cells – cell-based, CellTiter-Glo, cherry-picked, cytotoxicity control for Shn3 inhibitor project, dose response (AID 624134). Format: functional.
Test [4] concerns the target Latent membrane protein 1 (Human herpesvirus 4 (strain B95-8), UniProt P03230). Description: LMP1 TES1 pathway selectivity over dsRED control – imaging, HEK293T, dual-color eGFP/dsRED, cherry-picks, selectivity assay for LMP1 NF-kB inhibitor project, dose response (AID 588398). Format: functional, cell-based.
The next test deals with HEK293. Description: EBV LMP1 TES2 canonical NF-kB signalling blockers – cell-based, HEK293, luciferase, cherry-pick, dose response (AID 588343). Format: functional. Particulars: Homo sapiens.
A further test has as its target Cysteine protease ATG4B (Homo sapiens, UniProt Q9Y4P1). Format: functional.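 Further: Fluorescence-based dose-response confirmation assay measuring inhibition of ATG4B activity.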
The target of a further test is Phospholipase A2 (Homo sapiens, UniProt P04054). Format: functional.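 Further: confirmatory dose-response counterscreen on phospholipase A2, testing hits that came from an ultra-high-throughput screen for ATG4B inhibitors.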
Test [5] can be described thus: NIH3T3 cell viability loss – ATP luminescence, mouse fibroblasts, counter-screen, dose response (AID 2010).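 Further: cells exposed to compound for about 90 hours before reading.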 The class given is functional, cell-based.
The target in test [6] is T1, Zinc finger protein mex-5 (Caenorhabditis elegans, UniProt Q9XUB2).
T1 sequence (Q9XUB2 whole entry): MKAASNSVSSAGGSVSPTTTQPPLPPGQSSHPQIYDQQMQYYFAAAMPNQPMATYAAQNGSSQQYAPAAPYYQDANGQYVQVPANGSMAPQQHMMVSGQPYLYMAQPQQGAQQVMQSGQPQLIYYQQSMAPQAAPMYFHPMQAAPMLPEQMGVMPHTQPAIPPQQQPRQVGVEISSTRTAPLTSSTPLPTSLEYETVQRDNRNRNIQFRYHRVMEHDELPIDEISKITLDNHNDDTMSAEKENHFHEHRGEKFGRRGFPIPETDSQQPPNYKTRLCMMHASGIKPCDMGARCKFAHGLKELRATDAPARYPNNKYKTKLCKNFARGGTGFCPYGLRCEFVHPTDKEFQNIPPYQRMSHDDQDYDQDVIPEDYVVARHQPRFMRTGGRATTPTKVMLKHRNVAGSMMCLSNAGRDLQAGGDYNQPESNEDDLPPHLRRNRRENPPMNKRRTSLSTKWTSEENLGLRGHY
Description: potency of MEX-5 RNA-binding blockers – biochemical, C. elegans, fluorescence polarization, dose response (AID 1960). A general note: In fluorescence polarisation assays a small probe gives low polarisation when free and higher when bound to something large.

Test [7] is described as follows: HEK-293T cell viability reduction – luminescence, B-cell screen hits, cytotoxicity control for BCR NF-kB inhibitor project, dose response (AID 489021).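 Further: HEK-293T cells carrying an NF-kB luciferase reporter; cells exposed to compound for about 14 hours before viability readout.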 The class given is functional, cell-based.
For a further test, the target named is T2, Protein skinhead-1 (Caenorhabditis elegans, UniProt P34707).
T2 sequence (P34707 whole entry): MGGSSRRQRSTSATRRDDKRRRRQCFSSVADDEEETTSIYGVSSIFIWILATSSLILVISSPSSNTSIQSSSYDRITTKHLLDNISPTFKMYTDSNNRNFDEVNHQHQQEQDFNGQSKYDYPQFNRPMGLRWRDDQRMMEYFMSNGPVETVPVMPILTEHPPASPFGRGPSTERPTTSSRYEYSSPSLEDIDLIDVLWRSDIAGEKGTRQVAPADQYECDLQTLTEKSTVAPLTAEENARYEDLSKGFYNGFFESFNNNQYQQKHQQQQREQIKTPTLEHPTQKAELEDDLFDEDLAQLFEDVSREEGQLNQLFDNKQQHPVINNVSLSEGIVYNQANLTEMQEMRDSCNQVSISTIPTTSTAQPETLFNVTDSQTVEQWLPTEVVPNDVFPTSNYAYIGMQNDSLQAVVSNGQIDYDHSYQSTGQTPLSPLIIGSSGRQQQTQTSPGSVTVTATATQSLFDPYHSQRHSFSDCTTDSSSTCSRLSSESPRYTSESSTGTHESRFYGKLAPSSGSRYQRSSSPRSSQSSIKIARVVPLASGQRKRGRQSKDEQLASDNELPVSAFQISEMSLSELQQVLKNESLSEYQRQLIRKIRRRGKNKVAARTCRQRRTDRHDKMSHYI
Format: functional.

In test [8] the target is T3, RNA-binding protein pos-1 (Caenorhabditis elegans, UniProt G5EF15).
T3 sequence (G5EF15 whole entry): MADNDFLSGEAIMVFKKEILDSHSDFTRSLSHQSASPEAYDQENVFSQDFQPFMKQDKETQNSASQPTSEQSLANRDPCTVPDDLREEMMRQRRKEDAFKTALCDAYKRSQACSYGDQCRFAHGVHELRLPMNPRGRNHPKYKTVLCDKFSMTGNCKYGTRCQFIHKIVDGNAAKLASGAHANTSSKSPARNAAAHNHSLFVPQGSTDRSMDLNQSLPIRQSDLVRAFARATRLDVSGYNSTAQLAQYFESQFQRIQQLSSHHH
Description: disruptors of C. elegans POS-1 RNA interaction – biochemical, fluorescence polarization, dose response (AID 1964).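 Further: purified POS-1 fused to maltose binding protein made in E. coli; potency of compounds blocking POS-1 binding to fluorescent RNA.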

Test [9] can be described thus: Trypanosoma cruzi growth suppression in host cells – NIH3T3 host cells, beta-gal luminescence, confirmation (AID 2044).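 Further: intracellular parasites grown in NIH/3T3 mouse fibroblasts as host cells; luminescent beta-galactosidase reporter signal from transgenic T. cruzi replicating inside host cells; inhibitors lower the luminescence signal.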 The class given is functional, cell-based.
Test [10] can be described thus: luciferase reporter signal suppression in cells – H4 neuroglioma cells, luminescence, dose response (AID 1990). Format: functional, cell-based. In general terms: A reporter such as luciferase makes a cellular process visible.
The nature of test [11]: Luminescence Cell-Based Dose Response HTS to Identify Inhibitors of 5'UTR Stem-Loop Driven Prion Protein mRNA Translation in H4 Neuroglioblastoma Cells. [Related pubchem assays: 1827 (Project Summary), 1813 (Primary HTS)]. Format: functional.
Test [12] in a line: alpha-synuclein stem-loop luciferase translation blockers – H4 neuroglioma cells, luminescence, confirmation (AID 1988). Format: functional, cell-based.
For test [13], the target named is T4, Apoptotic protease-activating factor 1 (Homo sapiens, UniProt O14727).
T4 sequence (O14727 whole entry): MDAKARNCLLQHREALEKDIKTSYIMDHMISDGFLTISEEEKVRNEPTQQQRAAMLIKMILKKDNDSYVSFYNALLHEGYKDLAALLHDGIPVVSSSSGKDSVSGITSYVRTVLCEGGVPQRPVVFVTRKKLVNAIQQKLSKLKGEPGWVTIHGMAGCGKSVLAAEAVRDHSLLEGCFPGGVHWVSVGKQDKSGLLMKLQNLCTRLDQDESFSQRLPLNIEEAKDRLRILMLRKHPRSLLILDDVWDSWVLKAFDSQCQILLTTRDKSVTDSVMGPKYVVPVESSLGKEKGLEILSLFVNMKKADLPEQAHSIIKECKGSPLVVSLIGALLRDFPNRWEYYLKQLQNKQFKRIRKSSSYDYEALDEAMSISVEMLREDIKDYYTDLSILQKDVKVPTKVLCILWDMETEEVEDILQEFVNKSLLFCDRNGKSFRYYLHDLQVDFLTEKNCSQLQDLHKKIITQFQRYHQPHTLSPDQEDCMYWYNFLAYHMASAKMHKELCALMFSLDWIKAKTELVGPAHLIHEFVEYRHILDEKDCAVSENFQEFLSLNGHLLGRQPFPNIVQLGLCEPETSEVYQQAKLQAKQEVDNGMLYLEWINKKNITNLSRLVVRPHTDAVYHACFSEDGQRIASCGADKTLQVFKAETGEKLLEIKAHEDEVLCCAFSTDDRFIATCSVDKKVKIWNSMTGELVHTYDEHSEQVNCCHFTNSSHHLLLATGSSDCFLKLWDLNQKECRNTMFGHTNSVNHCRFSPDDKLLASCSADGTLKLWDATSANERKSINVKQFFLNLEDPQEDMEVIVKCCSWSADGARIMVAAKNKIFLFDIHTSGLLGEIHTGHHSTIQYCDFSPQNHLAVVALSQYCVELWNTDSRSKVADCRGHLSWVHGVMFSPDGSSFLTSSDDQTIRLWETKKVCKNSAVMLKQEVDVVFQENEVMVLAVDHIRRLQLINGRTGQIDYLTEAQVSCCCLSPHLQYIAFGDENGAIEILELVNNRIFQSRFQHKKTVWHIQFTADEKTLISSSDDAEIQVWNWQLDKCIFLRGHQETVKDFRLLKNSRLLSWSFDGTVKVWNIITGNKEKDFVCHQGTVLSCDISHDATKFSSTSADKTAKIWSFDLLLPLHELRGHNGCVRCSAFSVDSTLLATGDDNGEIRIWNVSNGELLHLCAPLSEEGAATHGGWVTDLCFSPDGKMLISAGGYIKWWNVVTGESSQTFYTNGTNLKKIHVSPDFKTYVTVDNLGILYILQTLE
The class given is functional.

The test system of the next test is Vero. The experiment in a line: viability of Vero cells under compound – cytotoxicity control for flavivirus capping enzyme inhibitors (AID 588742). The class given is functional. Particulars: Chlorocebus sabaeus.
The next test concerns the target Genome polyprotein (dengue virus type 2, UniProt P29990). Description: flavivirus cap methylation enzyme inhibition – biochemical, confirmation dose response, primary screen (AID 588689). The class given is functional.
The next test deals with Prothrombin (Homo sapiens, UniProt P00734). The experiment in a line: Thrombin 1536 HTS Dose Response Confirmation. [Related pubchem assays: 1046 (Thrombin 1536 HTS; hits were confirmed in this assay)]. The class given is functional.

Active and inactive are the calls of the source.

Chain of Phospholipase A2 (P04054 whole entry): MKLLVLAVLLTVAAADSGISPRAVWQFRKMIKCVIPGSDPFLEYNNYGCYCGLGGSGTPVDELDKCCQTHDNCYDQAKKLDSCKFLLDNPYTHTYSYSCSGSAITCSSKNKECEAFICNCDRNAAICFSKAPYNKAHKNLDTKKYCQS
Chain of Cysteine protease ATG4B (Q9Y4P1 whole entry): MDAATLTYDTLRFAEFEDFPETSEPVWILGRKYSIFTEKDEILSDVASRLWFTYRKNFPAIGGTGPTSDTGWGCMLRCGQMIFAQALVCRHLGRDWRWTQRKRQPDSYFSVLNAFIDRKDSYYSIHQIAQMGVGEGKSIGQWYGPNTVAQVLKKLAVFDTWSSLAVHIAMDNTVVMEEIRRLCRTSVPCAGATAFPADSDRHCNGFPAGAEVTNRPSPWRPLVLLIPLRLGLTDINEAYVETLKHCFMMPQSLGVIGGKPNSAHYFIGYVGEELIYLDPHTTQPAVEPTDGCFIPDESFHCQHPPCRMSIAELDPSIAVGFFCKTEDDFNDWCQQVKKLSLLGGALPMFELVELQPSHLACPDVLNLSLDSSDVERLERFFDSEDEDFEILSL
Chain of Latent membrane protein 1 (P03230 whole entry): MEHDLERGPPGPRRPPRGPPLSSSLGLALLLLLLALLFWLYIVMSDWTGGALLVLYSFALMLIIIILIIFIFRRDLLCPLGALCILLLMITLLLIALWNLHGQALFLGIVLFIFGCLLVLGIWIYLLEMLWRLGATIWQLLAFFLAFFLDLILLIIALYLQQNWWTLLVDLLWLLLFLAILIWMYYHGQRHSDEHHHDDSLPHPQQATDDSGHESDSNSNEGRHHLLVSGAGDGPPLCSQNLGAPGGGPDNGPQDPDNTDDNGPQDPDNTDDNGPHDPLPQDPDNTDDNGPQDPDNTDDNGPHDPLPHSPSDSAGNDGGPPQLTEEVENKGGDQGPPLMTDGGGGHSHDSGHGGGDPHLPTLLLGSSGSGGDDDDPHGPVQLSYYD
Chain of Genome polyprotein (P29990 2492-3391 limits assumed): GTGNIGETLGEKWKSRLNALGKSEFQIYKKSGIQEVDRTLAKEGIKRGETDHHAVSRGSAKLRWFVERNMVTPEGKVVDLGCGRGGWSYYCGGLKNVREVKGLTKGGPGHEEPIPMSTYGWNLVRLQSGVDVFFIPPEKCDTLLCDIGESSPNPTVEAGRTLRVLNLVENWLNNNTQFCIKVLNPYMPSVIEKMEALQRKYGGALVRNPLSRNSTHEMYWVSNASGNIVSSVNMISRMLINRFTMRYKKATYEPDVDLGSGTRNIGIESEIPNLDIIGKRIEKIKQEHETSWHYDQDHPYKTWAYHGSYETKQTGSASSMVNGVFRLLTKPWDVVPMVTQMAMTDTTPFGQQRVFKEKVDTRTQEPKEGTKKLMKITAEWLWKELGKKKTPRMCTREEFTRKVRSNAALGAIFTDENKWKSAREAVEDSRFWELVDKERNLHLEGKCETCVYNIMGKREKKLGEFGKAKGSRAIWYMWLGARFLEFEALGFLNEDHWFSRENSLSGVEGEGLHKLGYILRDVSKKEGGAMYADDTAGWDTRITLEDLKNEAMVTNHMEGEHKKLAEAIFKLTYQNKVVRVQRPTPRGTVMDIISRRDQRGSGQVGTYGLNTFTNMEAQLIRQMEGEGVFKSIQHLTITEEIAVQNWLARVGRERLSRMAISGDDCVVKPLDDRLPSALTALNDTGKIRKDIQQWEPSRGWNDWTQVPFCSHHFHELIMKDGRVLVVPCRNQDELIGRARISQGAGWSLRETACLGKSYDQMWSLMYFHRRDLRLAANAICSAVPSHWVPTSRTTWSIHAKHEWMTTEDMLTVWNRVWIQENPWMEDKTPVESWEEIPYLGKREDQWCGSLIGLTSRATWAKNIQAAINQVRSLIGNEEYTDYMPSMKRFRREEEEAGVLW

One may read the AC50 as the concentration at which the activity in the assay is half-maximal. As for `CC(C)(O)C#Cc1ccc([C@@H]2C[C@H]3CN(c4ccccc4)C(=O)[C@]34CCCN24)s1`, the AC50 in test [1] is > 70 µM (inactive); in test [2] it was 4.93 µM (active); in [3], > 70 µM (inactive); in test [4] it was 5.64 µM (active); with HEK293, 11.9 µM (active).
The term IC50 denotes the concentration that inhibits the measured activity by half. Turning to `COc1ccc(N2C(=O)c3ccccc3NC23CCC(C)CC3)cc1` (centres undefined), the IC50 at Cysteine protease ATG4B is 21.1 µM (inactive); on Phospholipase A2, 7.99 µM (active).
One may read the EC50 as the concentration needed to bring the measured effect to its halfway point. With `CCc1ccc(/C=C2\SC(=S)N(CCCC(=O)Nc3ccccn3)C2=O)cc1`, the EC50 in test [5] is 54.8 µM (active); in [6], 24.6 µM (active); in test [8], 27.1 µM (active); in test [9], 1.83 µM (active). Moreover, the IC50 was > 80 µM (inactive) in [7] and > 100 µM (inactive) on Protein skinhead-1. The AC50 was 16.2 µM (active) in test [4] and 4.92 µM (active) in the test with HEK293.
On to `Cc1c(CCC(C)C)c(O)n2c(nc3ccccc32)c1C#N`, for which the EC50 in test [10] is 69.3 µM (active); in test [11], > 120 µM (not active); in test [12], > 120 µM (not active). The half-inhibitory concentration (IC50) in test [13] is 38.6 µM (active).
Broadly, the CC50 is the concentration giving 50% cytotoxicity. `O=C(NCC(c1cccs1)N1CCOCC1)c1ccccc1NS(=O)(=O)c1ccc(Cl)c([N+](=O)[O-])c1` (centres undefined): in the test with Vero, the half-maximal cytotoxic concentration (CC50) was 38.8 µM (active). Further, the IC50 at Genome polyprotein was > 100 µM (active).
With `O=C(NN=C1CCCCCC1)c1cn(-c2ccccc2)nc1-c1ccccc1`, the IC50 is 13.8 µM (active) at Cysteine protease ATG4B, 20.8 µM (inactive) on Phospholipase A2 and > 50 µM (not active) on Prothrombin.
